The source of these data is patent US9958434B2, “Fluorescent probe sensing tyrosine kinase and use thereof” (POSTECH ACADEMY-INDUSTRY FOUNDATION, priority 2013, dated 2018).

Series [1] in a line: Absorbance and fluorescence in HEPES buffer. Conditions: 10 mM HEPES buffer, pH 7.5. The class given is physicochemical. As to the method: The present inventors measured absorbance and a change in fluorescence of compound 1 under various solvent conditions.
The present inventors measured the absorbance and fluorescence of compound 1 in a buffer (pH 7.5, 10 mM HEPES). A UV/Vis spectrophotometer commercially available from HP was used to analyze the UV/Vis absorption spectra, and a photon technical international fluorescence system commercially available from PTI was used to analyze the fluorescence spectra. In this case, a cell used when compound 1 was put into each type of equipment was a standard quartz cell having a thickness of 1 cm.
In addition to compound 1, compound 5 was shown as a reference material in FIG. 1. In this case, compound 5 is a reference material obtained by introducing an alkyl group into a —OH group of compound 1 to remove an intramolecular hydrogen bond.
The panels (a) and (b) of the graph show the absorbances and fluorescence intensities of compound 5 and compound 1 under a solvent condition (for example, a 10 mM HEPES buffer, pH 7.5).

For another series, the target named is T1, PDGFRa (Homo sapiens, UniProt P16234).
T1 construct: purchased Carna Biosciences
T1 sequence (P16234 24-1089): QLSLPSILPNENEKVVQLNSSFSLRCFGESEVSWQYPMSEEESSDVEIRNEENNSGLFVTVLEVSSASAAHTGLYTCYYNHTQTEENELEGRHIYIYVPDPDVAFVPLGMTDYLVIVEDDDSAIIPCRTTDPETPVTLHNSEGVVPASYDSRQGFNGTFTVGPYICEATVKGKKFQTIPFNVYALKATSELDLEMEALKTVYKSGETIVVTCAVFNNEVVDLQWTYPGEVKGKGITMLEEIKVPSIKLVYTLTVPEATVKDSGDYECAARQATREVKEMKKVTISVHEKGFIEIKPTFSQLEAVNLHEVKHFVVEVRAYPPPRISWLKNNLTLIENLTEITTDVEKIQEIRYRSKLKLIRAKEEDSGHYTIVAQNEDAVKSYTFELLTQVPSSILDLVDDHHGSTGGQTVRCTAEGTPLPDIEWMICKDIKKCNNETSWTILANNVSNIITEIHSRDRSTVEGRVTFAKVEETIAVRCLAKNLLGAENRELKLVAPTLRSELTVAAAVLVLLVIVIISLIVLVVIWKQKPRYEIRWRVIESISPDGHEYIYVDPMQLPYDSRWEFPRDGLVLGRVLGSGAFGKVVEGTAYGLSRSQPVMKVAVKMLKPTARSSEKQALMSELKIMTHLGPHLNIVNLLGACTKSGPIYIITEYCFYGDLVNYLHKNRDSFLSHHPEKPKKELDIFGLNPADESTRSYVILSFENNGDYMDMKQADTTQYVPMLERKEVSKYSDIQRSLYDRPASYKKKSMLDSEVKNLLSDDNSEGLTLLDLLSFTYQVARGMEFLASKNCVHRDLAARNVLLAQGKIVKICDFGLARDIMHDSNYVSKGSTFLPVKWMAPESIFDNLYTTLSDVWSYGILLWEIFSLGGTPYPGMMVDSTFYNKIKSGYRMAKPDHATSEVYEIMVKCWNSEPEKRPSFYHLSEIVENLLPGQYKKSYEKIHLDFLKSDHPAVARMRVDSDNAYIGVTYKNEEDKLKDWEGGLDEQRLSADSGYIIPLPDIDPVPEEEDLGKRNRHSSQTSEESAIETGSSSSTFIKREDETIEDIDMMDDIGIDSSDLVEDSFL
Kind of series: Protein binding selectivity by change in fluorescence (fluorescence turn-on on binding). As to the method:
(§1) More particularly, to determine whether compound 1 selectively binds to a kinase enzyme, various proteins (including a kinase enzyme) were used to check a change in fluorescence. In this experiment, a buffer (100 mM HEPES buffer, pH 7.4) was used as the solvent, and a kinase commercially available from Carna Biosciences was used as the kinase enzyme. Here, each kinase enzyme was stored at −80° C. together with a solvent (50 mM Tris-HCl, 150 mM NaCl, 0.1% CHAPS, 1 mM DTT, and 10% Glycerol, pH 7.5) kindly provided by the manufacturer. […] A 96-well fluorescence assay plate (commercially available from SPL Life Science) was used as a plate used upon measurement of fluorescence, and a VCITOR 3 multilabel counter (commercially available from Perkin Elmer-Wellesley) was used as a measuring machine. A 355 nm-thick filter was used to produce excitation wavelengths of the measuring machine, and a 535 nm-thick filter was used to produce emission wavelengths of the measuring machine. Stirring was performed at 37° C. for 24 hours at a rotary speed of 170 rpm using an NB-205Q model (commercially available from N-BIOTEK). Compound 1 was dissolved in a DMSO solution (1 mM, 10 mM, 50 mM, 100 mM, and 200 mM) to be used, and DMSO in every tube was adjusted to be substantially the same content (less than 1%) under the finally used solvent conditions. Mg^2+ and ATP were used at a content of 1 mM.
In the graph shown in FIG. 2, the horizontal axis represents kinds of proteins, and the vertical axis represents fluorescence intensities of the proteins. Each experimental value was basically an average value of three experiments conducted through the same course for preparing for experiments, a concentration of compound 1 used was 100 μM, and an amount of each protein was 0.2 μg/mL. The kinds of proteins indicated on the horizontal axis are as follows.
More particularly, Model WUV-L10 commercially available from WiseUV was used as a UV excitation device, and the solvent and experiment conditions used were substantially the same as in Example 3. Here, a fluorescence emission observed in the UV excitation device (UV excitation at 350 nm to 430 nm) was determined by taking an image.
More particularly, compound 1 (100 μM) and the kinase enzyme, Src or PDGFRa, were used at contents of 0.2 μg and 1 μg, respectively, and the solvent and experiment conditions used were substantially the same as in Example 3.
(§2) More particularly, the solvent and experiment conditions used were substantially the same as in Example 3. In the graph shown in FIG. 7, A represents a fluorescence intensity when compound 1 (100 μM) is used alone, B represents a fluorescence intensity when Mg (1 mM) is added to compound 1, C represents a fluorescence intensity when ATP (1 mM) is added to compound 1, and D represents a fluorescence intensity when compound 1 is treated with Mg (1 mM) and ATP (1 mM) at the same time.
(§3) More particularly, a concentration of the kinase enzyme was set to 0.2 μg/mL, fluorescence intensity according to the concentration of compound 1 was measured in the presence of Mg (1 mM) and ATP (1 mM), and the solvent conditions and other conditions were substantially the same as in Example 3.

A further series addresses T2, Src (Homo sapiens, UniProt P12931).
T2 construct: purchased Carna Biosciences
The description is as above. Here is the method: as §1
In the graph shown in FIG. 2, the horizontal axis represents kinds of proteins, and the vertical axis represents fluorescence intensities of the proteins. Each experimental value was basically an average value of three experiments conducted through the same course for preparing for experiments, a concentration of compound 1 used was 100 μM, and an amount of each protein was 0.2 μg/mL. The kinds of proteins indicated on the horizontal axis are as follows. […]
as §2, §3

Series [2] deals with six kinase enzymes: ABL, BRAF, PDGFRa, RSK2, Src, TYK2. Kind of series: Effect of kinase inhibitor on binding of compound 1 to kinase enzymes (fluorescence intensity).
Procedure: In this experiment, a buffer (100 mM HEPES buffer, pH 7.4) was used as the solvent, and a kinase commercially available from Carna Biosciences was used as the kinase enzyme. Here, each kinase enzyme was stored at −80° C. together with a solvent (50 mM Tris-HCl, 150 mM NaCl, 0.1% CHAPS, 1 mM DTT, and 10% Glycerol, pH 7.5) kindly provided by the manufacturer. […] A 96-well fluorescence assay plate (commercially available from SPL Life Science) was used as a plate used upon measurement of fluorescence, and a VCITOR 3 multilabel counter (commercially available from Perkin Elmer-Wellesley) was used as a measuring machine. A 355 nm-thick filter was used to produce excitation wavelengths of the measuring machine, and a 535 nm-thick filter was used to produce emission wavelengths of the measuring machine. […]
More particularly, an effect of the inhibitor on a total of the six kinase enzymes was determined, and the six kinase enzymes are as follows: (A) ABL, (B) BRAF, (C) PDGFRa, (D) RSK2, (E) Src, and (F) TYK2. […]
In this case, compound 1 (100 μM), ATP (1 mM), Mg (1 mM), and a kinase enzyme (0.2 μg/ml) were stirred for 24 hours (at 37° C.), and an inhibitor (100 μM) was then treated. […] Here, a left bar of each of A to F represents a fluorescence intensity before treatment of the inhibitor, and a right bar of each of A to F represents a fluorescence intensity after treatment of the inhibitor.
A further series has as its system CT-26 cancer cells. Nature of the series: Emission wavelengths of fluorescence in cancer cells using an optical fiber. The class given is cell-based, mouse. Conditions: CT-26 cells treated with compound 1 as in Example 12. Here is the method: More particularly, CT-26 cancer cells were treated with compound 1 in the same manner as performed in Example 12, and emission wavelengths of fluorescence were then determined using an optical fiber. The optical fiber was connected to a spectrofluorometer (FL1039, HORIBA), and ranges of excitation wavelengths and emission wavelengths are substantially the same as in Example 12. Then, the emission wavelengths of fluorescence were determined.

Where [3] appears, read: compound 1 100 μM, protein 0.2 μg/mL, with Mg and ATP (1 mM), 37° C. 24 hours.
Setting [4] is: compound 1 100 μM, case D: Mg (1 mM) and ATP (1 mM) together.
The mark [5] stands for this setting: compound 1 100 μM, enzyme 0.2 μg and 1 μg.
Where [6] appears, read: compound 1 at approximately 50 μM, kinase 0.2 μg/mL, Mg 1 mM, ATP 1 mM.

T2 sequence (P12931 whole entry): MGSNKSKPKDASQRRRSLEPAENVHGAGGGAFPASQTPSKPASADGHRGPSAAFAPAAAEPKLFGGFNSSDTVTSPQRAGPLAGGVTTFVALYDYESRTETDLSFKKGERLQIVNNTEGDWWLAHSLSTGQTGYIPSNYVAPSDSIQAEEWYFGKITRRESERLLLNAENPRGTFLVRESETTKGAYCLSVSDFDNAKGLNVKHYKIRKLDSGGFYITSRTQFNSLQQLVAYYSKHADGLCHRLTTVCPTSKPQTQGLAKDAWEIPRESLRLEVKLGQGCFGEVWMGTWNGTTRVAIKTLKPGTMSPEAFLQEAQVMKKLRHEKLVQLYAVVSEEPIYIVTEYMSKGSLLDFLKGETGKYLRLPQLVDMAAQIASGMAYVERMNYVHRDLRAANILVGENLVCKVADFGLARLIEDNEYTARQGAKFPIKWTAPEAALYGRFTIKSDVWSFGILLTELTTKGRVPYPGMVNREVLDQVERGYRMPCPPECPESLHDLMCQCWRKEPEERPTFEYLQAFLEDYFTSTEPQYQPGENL

On to `CN(C)c1ccc2cc(C=O)c(O)cc2c1` [compound 1, 6-(dimethylamino)-3-hydroxyl-2-naphthaldehyde], for which, in series [1], the fluorescence emission entry is listed as “did not emit fluorescence”. The maximum absorbance in series [1] is 390 nm. Also, at PDGFRa (PDGFRa with ATP and Mg, 37° C. 24 hours, UV 350 nm to 430 nm, compared with compound 1 alone), the “fluorescence under UV excitation (image)” value was “strong fluorescence”. For the same compound, the fluorescence intensity result on PDGFRa (setting [3]) is “highest fluorescence intensity”; on Src (setting [3]), “increase in fluorescence”. Also, the “fluorescence intensity, effect of cofactors” value on PDGFRa (setting [4]) and at Src (setting [4]) was “highest increase in fluorescence intensity” throughout. The “fluorescence signal intensity according to concentration of kinase enzyme” value on PDGFRa (setting [5]) and on Src (setting [5]) was “stronger fluorescence signal intensity at higher concentrations” in each case. Moreover, the “increase in fluorescence intensity” value on PDGFRa (setting [6]) and on Src (setting [6]) was “approximately 50%” each time. In addition, the “fluorescence intensity after later treatment of inhibitor” value in series [2] (24 hours 37° C. with kinase, Mg, ATP, then inhibitor 100 μM for another 24 hours) is “decreased”. In addition, in series [2] (compound 1 100 μM, kinase 0.2 μg/ml, Mg 1 mM, ATP 1 mM, Gleevec 100 μM together), the “fluorescence intensity with inhibitor included” value was “did not selectively bind to the kinase enzymes to cause a sufficient increase in fluorescence intensity”. In addition, in the series with CT-26 cancer cells, the “emission wavelength of fluorescence in cells” value is recorded as “around 550 nm”.
